# Assay: In vitro MRI relaxation properties (relaxivity)
# Excerpt: In vitro MRI of GdNPs and Polymer Modified Gd NPs. In order to provide information about the clinical imaging viability of the polymer modified gold/Gd nanoparticles, as a positive contrast agent, in vitro MRI was employed to determine relaxation properties of the unmodified and polymer modified gold/Gd nanoparticles. Table 1 compares the MRI longitudinal and transverse relaxivities, r1 and r2, respectively, of PNIPAM-modified gold/Gd nanoparticles and gold/Gd unmodified nanoparticles to the clinically employed contrasts agents, gadopentetate dimeglumine (Magnevist®) and gadobenate dimeglumine (Multihance®). […] By taking advantage of these properties, novel theragnostic polymer-modified gold/Gd nanoparticles could be produced and exploited as contrast agents for conventional T1 MR imaging.
row,Compound,r1 (MRI longitudinal relaxivity)
1,"CNC[C@H](O)[C@@H](O)[C@H](O)[C@H](O)CO.CNC[C@H](O)[C@@H](O)[C@H](O)[C@H](O)CO.O=C([O-])CN(CCN(CC(=O)[O-])CC(=O)O)CCN(CC(=O)[O-])CC(=O)O.[Gd+3] [Magnevist ®, gadopentetate dimeglumine]",6.95 mM⁻¹ s⁻¹
2,"CNC[C@H](O)[C@@H](O)[C@H](O)[C@H](O)CO.CNC[C@H](O)[C@@H](O)[C@H](O)[C@H](O)CO.O=C([O-])CN(CCN(CC(=O)[O-])CC(=O)O)CCN(CC(=O)O)C(COCc1ccccc1)C(=O)[O-].[Gd+3] (centres unmarked) [Multihance ®, gadobenate dimeglumine]",17.7 mM⁻¹ s⁻¹
